Assays:
[1] = tested on: plasma high density lipoprotein cholesterol (HDLC); assay: Pharmacological Test - 1: increase of plasma HDLC concentration in rats after oral administration; type: in vivo, Wistar strain male rats; settings: Wistar male rats, 300 mg/5 ml/kg/day for 2 days in 0.5%-CMC, blood taken after 20 hours fasting, relative to control group
Protocol: Seven-week-old Wistar strain male rats were used as the test animals. One test group consisting of six (6) rats. A test compound was suspended in a 0.5%-carboxymethyl cellulose (CMC) aqueous solution, thus prepared suspension containing the test compound was orally administered compulsorily by using a sonde to the rat in the amount of 300 mg/5 ml/kg/day for 2 days. Similar to the test group, to each of six (6) rats in the control group was administered with 0.5%-CMC aqueous solution without containing the test compound.
After the final administration was finished, the test rat was fasted for 20 hours, and the blood sample was taken from the rat. The concentration of plasma high density lipoprotein cholesterol (HDLC) was determined by using a measuring instrument of HDL-C kit-N (manufactured by Nihon Shoji Kabushiki Kaisha).
Increasing ratio (%) of plasma HDLC concentration performed by a test compound was calculated from the formula as follows: [formula]

erythrocytes = assay: Pharmacological Test - 2 (Hemolysis test) in mice after oral administration; type: in vivo, ddY-strain male mice; settings: ddY male mice, 600 mg/5 ml/kg/day for 10 days, 20 hours fasting, mean of test group divided by mean of control group
Protocol: Seven-week-old ddY-strain male mice were used as test animals. One test group consisting of six (6) mice. A test compound was suspended in a 0.5%-carboxymethyl cellulose (CMC) aqueous solution, thus prepared suspension containing the test compound was orally administered compulsorily by using a sonde to the mouse in the amount of 600 mg/5 ml/kg/day for 10 days. Similar to the above, to each of six mice in the control group was administered with 0.5%-CMC aqueous soluiton without containing the test compound.
After the final administration was finished, the mouse was fasted for 20 hours, then the mouse was subjected to dissection and the blood sample as well as the sample of the spleen were taken by enucleation. The number of the erythrocytes was counted and the weight of the spleen was measured.
The ratio of number of the erythrocytes was calculated by dividing the mean value of number of the erythrocytes obtained from the test group by the mean value of number of the erythrocytes obtained from the control group. Similarly, the ratio of weight of the spleen was calculated by dividing the mean value of weight of the spleen obtained from the test group by the mean value of weight of the spleen obtained from the control group.

| SMILES | Increasing ratio (%) of the plasma HDLC concentration [1] [%] | Ratio of number of the erythrocytes (erythrocytes) | Ratio of weight of the spleen (erythrocytes) |
| --- | --- | --- | --- |
| CCOP(=O)(Cc1ccc(C(=O)Nc2ccc(Br)cc2C#N)cc1)OCC [Compound of Example 1, 4-diethoxyphosphinoylmethyl-N-(4-bromo-2-cyanophenyl)benzamide] | 193 | 0.96 | 1.13 |
| CCOP(=O)(Cc1ccc(C(=O)Nc2ccc(Cl)cc2C#N)cc1)OCC [Compound of Example 2] | 196 | 0.97 | 1.09 |
| CCOP(=O)(Cc1ccc(C(=O)Nc2ccc(C#N)cc2Cl)cc1)OCC [Compound of Example 3] | 187 | – | – |
| CCOP(=O)(Cc1ccc(C(=O)Nc2ccc(I)cc2C#N)cc1)OCC [Compound of Example 4] | 187 | – | – |
| CCOP(=O)(Cc1ccc(C(=O)Nc2ccc(C#N)cc2Br)cc1)OCC [Compound of Example 5] | 222 | 1.07 | 0.94 |
| CCOP(=O)(Cc1ccc(C(=O)Nc2ccc(C#N)cc2I)cc1)OCC [Compound of Example 7] | 184 | – | – |

From patent publication EP0402033A1, “Carboxamide derivatives” (OTSUKA PHARMACEUTICAL FACTORY, INC., priority 1989, dated 1990)
